The record followed here is patent US20210308028A1, “Compositions and Methods for Maintaining and Protecting Tissue Integrity and Barrier Function” (Colgate-Palmolive Company, priority 2020, published 2021).

Test [1] deals with zonula occludens-1 and occludin in B11 gingival keratinocytes. Kind of test: Immunofluorescent staining of zonula occludens-1 and occludin. It is filed as cell-based, human. Conditions: no challenge; Example 3, FIGS. 8, 11, 14. Here is the method:
(§1) Gingival keratinocytes treated as described above for 12 h were immunostained for zonula occludens-1 and occludin, two tight junction proteins. Briefly, the cells were fixed in 50 mM phosphate-buffered saline (pH 7.2) (PBS) containing 4% paraformaldhehyde for 20 min, permeabilized with 0.1% Triton X-100 for 10 min, and blocked in 3% non-fat milk in 20 mM Tris-HCl (pH 8), 150 mM NaCl, and 0.5% Tween 20 for 40 min. […] After washing with PBS, the cells were then treated with ProLong® Diamond antifade (Life Technologies). The slides were sealed with nail polish and were kept in the dark at 4° C. The localization of tight junction proteins in B11 cells was visualized using an Olympus FSX100 fluorescence microscope and FSX-BSW imaging software (Olympus, Tokyo, Japan). Immunofluorescent staining of tight junction proteins is a qualitative assay.
The localization of the tight junction proteins in B11 cells was visualized using an Olympus FSX100 fluorescence microscope and FSX-BSW imaging software (Olympus, Tokyo, Japan).

Test [2] concerns zonula occludens-1 and occludin in gingival keratinocytes challenged with P. gingivalis. Kind of test: Immunofluorescence of tight junction proteins with P. gingivalis challenge. It is filed as cell-based, human. The settings on record: Example 4, FIGS. 17, 20, 23. Here is the method:
Gingival keratinocytes treated as described above for 12 h were immunostained for zonula occludens-1 and occludin, two tight junction proteins. Briefly, the cells were fixed in 50 mM phosphate-buffered saline (pH 7.2) (PBS) containing 4% paraformaldhehyde for 20 min, permeabilized with 0.1% Triton X-100 for 10 min, and blocked in 3% non-fat milk in 20 mM Tris-HCl (pH 8), 150 mM NaCl, and 0.5% Tween 20 for 40 min. The cells were incubated with 2.5 μg/mL of either occludin antibody-Alexa Fluor® 488 conjugate or ZO-1 antibody-Alexa Fluor® 594 conjugate in blocking buffer overnight at 4° C. After washing with PBS, the cells were then treated with ProLong® Diamond antifade (Life Technologies). The slides were sealed with nail polish and were kept in the dark at 4° C. The localization of tight junction proteins in B11 cells was visualized using an Olympus FSX100 fluorescence microscope and FSX-BSW imaging software (Olympus, Tokyo, Japan). Immunofluorescent staining of tight junction proteins is a qualitative assay.
The gingival epithelium, a stratified squamous tissue that acts as an interface between the external environment and the underlying connective tissue, plays an active role in maintaining oral health. […] The capability of test compositions to protect oral tissue from perio-pathogenic bacteria caused tissue damage was assessed using the methodology set out in Example 2. […]

Test [3] concerns P. gingivalis. Kind of test: P. gingivalis invasion / translocation through keratinocyte layer. Conditions: Example 6, FIGS. 36, 39, 42. It is filed as cell-based, Porphyromonas gingivalis.
Experimental: Assays were performed to determine the extent formulations can inhibit and reduce invasion of cell monolayer by P. gingivalis.
The basolateral and apical compartments were filled with 0.235 mL and 0.075 mL of K-SFM, respectively. Following a 48-h incubation, the conditioned medium was replaced with antibiotic-free K-SFM. To determine the ability of P. gingivalis to penetrate the keratinocyte layer, FITC-labeled bacteria suspended in antibiotic-free K-SFM were added to the apical compartment of the double-chamber system at an MOI of 10^4. […] To evaluate the effect of the Dual Zinc plus Arginine aqueous solution and dentifrice on the invasive capacity of P. gingivalis, the keratinocyte layer was co-incubated with them and the bacteria. The translocation of FITC-labeled bacteria through the keratinocyte barrier was monitored using a Synergy 2 microplate reader by measuring the fluorescence (RUF; excitation wavelength 495 nm; emission wavelength 525 nm) in the medium recovered from the lower chamber following a 24-h incubation in an anaerobic chamber at 37° C.
The subject of test [4] is occludin and zonula occludens-1 in TNF-α-treated gingival keratinocytes. Nature of the test: Immunofluorescence of tight junction proteins with TNF-α challenge. In kind it is cell-based, human. Conditions: Example 5, FIGS. 26, 33, 34. Here is the method:
as §1
Assays exposed cells to either TNFα only or TNFα+test composition. TNFα is known to cause tissue damage. A stock solution of recombinant TNF-α is prepared in sterile distilled water at 100 μg/ml. Thereafter, dilutions are made in keratinocyte culture medium. First dilution is 1/1000 to obtain 100 ng/ml. TNF-α and the test compounds are added simultaneously.

For `O=C([O-])CC(O)(CC(=O)[O-])C(=O)[O-].O=C([O-])CC(O)(CC(=O)[O-])C(=O)[O-].[Zn+2].[Zn+2].[Zn+2]` [zinc citrate], the “immunofluorescence of tight junction proteins (Occludin, Zonula Occludens-1)” value in test [1] is recorded as “enhances barrier integrity”. In addition, the “immunofluorescence of tight junction proteins with P. gingivalis” value in test [2] is reported as “protects barrier integrity from the deleterious effects caused by the presence of P. gingivalis”.
`[O]=[Zn]` [zinc oxide]: in test [1], the “immunofluorescence of tight junction proteins (Occludin, Zonula Occludens-1)” value is given as “enhances barrier integrity”. Besides, the “immunofluorescence of tight junction proteins with P. gingivalis” value in test [2] is “protects barrier integrity from the deleterious effects caused by the presence of P. gingivalis”. In test [3], the “invasion of an epithelial cell monolayer by P. gingivalis” value was “inhibits invasion of an epithelial cell monolayer”. In test [4], the “TNFα induced cell junction disorganization (immunofluorescence)” value is listed as “prevents TNFα induced cell junction disorganization”.
